Assay results reported in publication PMC7269481, “ZN148 Is a Modular Synthetic Metallo-β-Lactamase Inhibitor That Reverses Carbapenem Resistance in Gram-Negative Pathogens In Vivo” (Antimicrobial Agents and Chemotherapy, 2020).
Entries after “also recorded” stand apart in the source; their conditions may differ. Like-named read-outs stand apart in the source and are kept apart here.

Key:
[1] = tested on: VIM-2-producing P. aeruginosa K34-7; assay: Meropenem MIC, broth microdilution, indicator strain K34-7; format: cell-based
Protocol: (§1) MICs of carbapenems alone and in combination with inhibitors were determined by broth microdilution according to the Clinical and Laboratory Standards Institute (CLSI) guidelines ([48]) using either premade plates (TREK Diagnostic Systems/Thermo Fisher Scientific, East Grinstead, United Kingdom) with meropenem or in-house-prepared plates with meropenem, imipenem, and doripenem. ZN148 and other inhibitors were tested at a fixed concentration of 50 μM. Cation-adjusted Mueller-Hinton medium (TREK Diagnostic Systems/Thermo Fisher Scientific; Becton Dickinson, Franklin Lakes, NJ) were used as growth medium. The plates were incubated for 20 h at 37°C. ZN148, ZN222, ZN223, ZN228, and TPA were initially tested in combination with meropenem using two indicator strains: NDM-1-producing K. pneumoniae ([49], [50]) and VIM-2-producing P. aeruginosa ([51]). The activity of ZN148 were subsequently tested against two extended strain collections: (i) in combination with meropenem against MBL-producing Enterobacterales (n = 62), MBL-producing P. aeruginosa (n = 9) and MBL- and class D carbapenemase-coproducing Enterobacterales (n = 5) from the strain collection at the Norwegian National Advisory Unit on Detection of Antimicrobial Resistance and (ii) in combination with meropenem, imipenem, and doripenem against globally collected MBL-producing E. coli (n = 87), K. pneumoniae (n = 85), P. aeruginosa (n = 52), and A. baumannii (n = 6), MBL- and class A/D carbapenemase-coproducing E. coli (n = 11), K. pneumoniae (n = 15) and A. baumannii (n = 7) at IHMA Europe, Sàrl, Switzerland. E. coli ATCC 25922 and P. aeruginosa ATCC 27853 were used as quality control strains. The MBL inhibitors were also tested for intrinsic antibacterial activity against the strains.

[2] = tested on: the strains (MBL-producing Gram-negative clinical strains); assay: Intrinsic antibacterial activity of the inhibitor; format: cell-based; settings: concentrations up to 500 μM
Protocol: (§2) MICs of carbapenems alone and in combination with inhibitors were determined by broth microdilution according to the Clinical and Laboratory Standards Institute (CLSI) guidelines ([48]) using either premade plates (TREK Diagnostic Systems/Thermo Fisher Scientific, East Grinstead, United Kingdom) with meropenem or in-house-prepared plates with meropenem, imipenem, and doripenem. ZN148 and other inhibitors were tested at a fixed concentration of 50 μM. Cation-adjusted Mueller-Hinton medium (TREK Diagnostic Systems/Thermo Fisher Scientific; Becton Dickinson, Franklin Lakes, NJ) were used as growth medium. The plates were incubated for 20 h at 37°C. ZN148, ZN222, ZN223, ZN228, and TPA were initially tested in combination with meropenem using two indicator strains: NDM-1-producing K. pneumoniae ([49], [50]) and VIM-2-producing P. aeruginosa ([51]). […]

[3] = tested on: female BALB/c mice; assay: In vivo tolerance (maximum tolerated dose study); settings: weekly i.p. doses 4 to 128 mg/kg
Protocol: In vivo tolerance of ZN148 was performed by Antineo (Lyon, France). Female BALB/c mice (4 weeks old, approximately 20 g; Charles River, L’Arbresle, France) were acclimatized 4 days in the animal facility before the initiation of experiments. Groups of six mice were either untreated or treated with 200 μl of ZN148 (0.4 to 12.8 g/liter) i.p. once a week. Doses were doubled each week (4 to 128 mg/kg) in the absence of any observed weight loss or modification in behavior. Individual weights were monitored 4 days a week. The relative weights were calculated as ratios between the weight of the day and the weight at the initiation of the experiment. Animals were also followed for macroscopic modifications in behavior. The protocol for experiments in mice was approved by the University of Lyon Animal Ethics Committee (Comité d’Ethique en Expérimentation Animale de l’Université Claude Bernard [Lyon, France], authorization number DR2015-09).

[4] = molecular target: T1, recombinant human glyoxylase II (Homo sapiens, UniProt Q16775); assay: Interaction with human glyoxylase II; format: biochemical; settings: 500 μM
T1 construct: purchased R&D Systems
Protocol: Recombinant human glyoxylase II (rHGly II; R&D Systems) was incubated with or without ZN148 (final concentrations of 125, 250, and 500 μM) for 10 and 30 min at 25°C in 50 mM Tris buffer (Merck) supplemented with 250 mM NaCl (pH 7.5). Then, 50 μl of substrate mixture containing 2 mM S-lactoylglutathione and 400 μM 5,5′-dithiobis(2-nitrobenzoic acid) (Sigma-Aldrich) was mixed with 50 μl of the preincubated rHGly II at a final enzyme concentration of 0.2 ng/μl. The initial enzymatic velocity was measured at 405 nm in 96-well plates (Thermo Fisher Scientific, Roskilde, Denmark) at 25°C in a SpectraMax Plus plate reader (Molecular Devices). EDTA (Merck) was included as a control.

[5] = tested on: NDM-1-producing A. baumannii strains (n=6); assay: Carbapenem MIC, NDM-1-producing A. baumannii; format: cell-based
Protocol: as §1

[6] = tested on: NDM-1-producing K. pneumoniae K66-45; assay: Time-kill assay; format: cell-based
Protocol: To determine the kinetics of killing of the meropenem-ZN148 combination, NDM-1-producing K. pneumoniae K66-45 (1 × 10^6 CFU/ml) in cation-adjusted Mueller-Hinton broth II (Sigma-Aldrich, St. Louis, MO) was treated with either 4 mg/liter meropenem or a combination of 4 mg/liter meropenem plus 50 or 100 μM ZN148 and grown at 37°C with shaking (180 rpm). The cell number was determined over the course of 24 h by using a modified Miles-Misra method ([52]). Briefly, […] serial dilutions of culture in sterile PBS were spotted and dried on square (10 by 10 cm) Luria-Bertani agar (Oxoid, Basingstoke, UK) plates at room temperature before incubation at 37°C. The limit of detection was set as […] in […] of undiluted culture, representing 100 CFU/ml.

[7] = tested on: NDM-1-producing K. pneumoniae K66-45; assay: Meropenem MIC, broth microdilution, indicator strain K66-45; format: cell-based; settings: for MIC: Klebsiella pneumoniae
Protocol: as §1

[8] = tested on: strains coproducing MBLs and class D carbapenemases; assay: Carbapenem potentiation, strains coproducing MBLs and class D carbapenemases; format: cell-based; settings: with a few exceptions; 50 μM ZN148
Protocol: as §2

[9] = tested on: MBL-producing Enterobacterales (n=234); assay: Meropenem MIC distribution, all MBL-producing Enterobacterales; format: cell-based; settings: for No. of strains with indicated MIC: MEM alone or +50 µM ZN148
Protocol: as §1

[10] = tested on: E. coli with VIM (n=7); assay: Meropenem MIC distribution, E. coli with VIM; format: cell-based; settings: MEM alone or +50 µM ZN148
Protocol: as §1

[11] = tested on: NDM-1-producing K. pneumoniae 50752501; assay: Meropenem MIC of the in vivo strain; format: cell-based; settings: Klebsiella pneumoniae; read-out: MEM MIC
Protocol: as §2

[12] = tested on: E. coli co-producing MBLs and class A/D serine carbapenemases; assay: Carbapenem MIC, E. coli co-producing MBLs and class A/D serine carbapenemases; format: cell-based; settings: carbapenem alone or with 50µM ZN148
Protocol: as §1

[13] = tested on: K. pneumoniae co-producing MBLs and class A/D serine carbapenemases; assay: Carbapenem MIC, K. pneumoniae co-producing MBLs and class D carbapenemases; format: cell-based
Protocol: as §1

[14] = meropenem 4 mg/liter with either 50 or 100 μM ZN148

## CN(C[C@H](O)[C@@H](O)[C@H](O)[C@H](O)CO)C(=O)c1ccc(CN(Cc2ccccn2)Cc2ccccn2)nc1 [ZN148]
[1]; inhibitor at 50 μM
  restoration of meropenem clinical susceptibility (EUCAST breakpoints): fully restored meropenem clinical susceptibility
[2]
  intrinsic antibacterial activity: no intrinsic antibacterial activity
[3]
  clinical signs (hair loss or bristly hair, immobility, prostration) test vs control groups: no significant differences
  loss of weight compared to initial weight: < 10%
[4]
  inhibitory activity against recombinant human glyoxylase II: no inhibition; also recorded: no inhibitory activity
[5]; in four of six clinical strains, class D carbapenemase-negative
  reduction of meropenem MIC: > 2 fold
[6]; [14]
  cell numbers after 8 h (below limit of detection): < 1 × 10^2 CFU/ml
  killing effect of combination: bactericidal
  regrowth within 24 h: no regrowth
[7]; inhibitor at 50 μM
  restoration of meropenem clinical susceptibility (EUCAST breakpoints): fully restored meropenem clinical susceptibility
[8]
  potentiation of meropenem, doripenem, and imipenem: no potentiation
[9]; ZN148 at 50 μM, n = 234
  strains with meropenem MIC reduced to susceptible levels (≤2 mg/liter): > 98%

## C[C@@H](O)[C@H]1C(=O)N2C(C(=O)O)=C(S[C@@H]3CN[C@H](C(=O)N(C)C)C3)[C@H](C)[C@H]12 [meropenem]
[1]; Pseudomonas aeruginosa, meropenem alone or +50 µM TPA or ZN148
  MIC: 32 to 64 mg/L
[10]; MIC 0.5 mg/L
  No. of strains with indicated MIC: 1
[10]; MIC 8 mg/L
  No. of strains with indicated MIC: 3
[10]; MIC 16 mg/L
  No. of strains with indicated MIC: 2
[10]; MIC 32 mg/L
  No. of strains with indicated MIC: 1
[11]
  MIC: 64 mg/L
[12]; NDM-1 + GES-2 strain
  MIC: > 64 mg/L
[12]; NDM-5 + OXA-48 strain
  MIC: > 64 mg/L
[12]; NDM-5 + OXA-232 strains, one value per strain
  MIC: > 64 mg/L
[5]; carbapenem alone or in combination with 50µM ZN148, one value per strain (n=6)
  MIC: > 64 mg/L
[13]; NDM + OXA-48-like strains, meropenem alone or with 50µM ZN148, one value per strain
  MIC: > 64 mg/L
[13]; NDM-1 + OXA-181 strain, meropenem alone or with 50µM ZN148
  MIC: > 64 mg/L
[13]; NDM-5 + OXA-181 strains, carbapenem alone or with 50µM ZN148, one value per strain
  MIC: > 64 mg/L
[6]; meropenem alone 4 mg/liter
  cell number after 24 h: > 1 × 10^9 CFU/ml
  initial reduction in cell numbers (bacteriostatic effect): 2 log
[7]; alone or in presence of 30 µM, 50 µM or 100 µM ZN148 (Table S6 title), read-out: MIC of meropenem
  MIC: > 32 mg/L
[7]; meropenem alone or +50 µM TPA or ZN148, read-out: Meropenem MIC
  MIC: 32 to 64 mg/L
[9]
  MIC90: ≥ 64 mg/L
[9]; MIC 0.5 mg/L
  No. of strains with indicated MIC: 1
[9]; MIC 1 mg/L
  No. of strains with indicated MIC: 2
[9]; MIC 2 mg/L
  No. of strains with indicated MIC: 3
[9]; MIC 4 mg/L
  No. of strains with indicated MIC: 10
[9]; MIC 8 mg/L
  No. of strains with indicated MIC: 9
[9]; MIC 16 mg/L
  No. of strains with indicated MIC: 22
[9]; MIC 32 mg/L
  No. of strains with indicated MIC: 35
[9]; MIC ≥64 mg/L
  No. of strains with indicated MIC: 152
